# Test system: bleomycin-induced lung fibrosis
# Test: Lung hydroxyproline content following bleomycin-induced lung fibrosis (14 days)
# Assay type: in vivo, rat
# Conditions: rats, bleomycin intratracheal day 0; day 1-14: Compound B 30 mg/kg oral three times a day, Triamcinolone 8 mg/kg i.p. every other day; versus bleo+saline; FIG. 8
# Method: Male Sprague-Dawley rats weighing 225 to 250 were purchased from Charles River Laboratories, Inc. Rats were housed in groups of two in the animal facility provided with filtered air and constant temperature and humidity. All animal maintenance was in accordance with Scios' guidelines for animal welfare. The rats were allowed to acclimate to the new environment for one week before all treatment. A 12:12 hour light-dark cycle was maintained, and the animals had free access to ad libitum food and water.
# Day 0: To induce pulmonary fibrosis, rats were intubated with 0.5 ml of saline or 0.5 ml of 1.0 unit/ml of bleomycin by intratracheal injection under anesthesia. The anesthetic solution used is a mixture of 0.4 ml of ketamine (100 mg/ml) and 0.25 ml of xylazine (20 mg/ml) at a dose of 1.3 ml/kg.
# Group 2 & 3: Rats were weighed and orally dosed with 5 ml/kg of saline three times a day […]
# To estimate the total amount of collagen in fibrotic lungs, the hydroxyproline content of the whole lung was measured in each group according to the method described by Woessner Biochim Biophys Acta. […]
# Briefly, lungs were harvested and homogenized in 15 ml of 1×PBS with a Polytron homogenizer. […] The hydroxyproline content was the measured using the method of Woessner.
# The data were analyzed using a one-way analysis of variance (ANOVA) with a Bonferroni's multiple comparisons post tests. […]
smiles,measurement,value
C[C@]12C=CC(=O)C=C1CC[C@H]1[C@@H]3C[C@@H](O)[C@](O)(C(=O)CO)[C@@]3(C)C[C@H](O)[C@@]12F [Triamcinolone],lung hydroxyproline content,significantly reducing lung hydroxyproline content

# Reference: patent publication US20040146509A1, “Methods for improvement of lung function using TGF-beta inhibitors” (priority 2002, published 2004)
